Data published in US20260159520A1, “HETEROBIFUNCTIONAL COMPOUNDS AND METHODS OF TREATING DISEASE” (Halda Therapeutics OpCo, Inc., priority 2022, published 2026).

Columns and labels:
Format in all cases: cell-based
[1] = test system: T-Rex 293 cell line SC3 cells lacking increased expression of androgen receptor protein; test: Cellular growth inhibition, T-Rex 293 SC3 cells without doxycycline; details: not exposed to doxycycline, 72 hours, CellTiter-Glo 2.0
Protocol: (§1) The following types of cells were prepared for this experiment: (i) a T-Rex 293 cell line having increased expression of androgen receptor protein due to exposure to doxycycline and (ii) a T-Rex 293 cell line lacking increased expression of androgen receptor protein. Ability of the test compounds to inhibit proliferation of the foregoing cell types was evaluated according to the procedures set forth below.
(§2) The doxycycline-inducible androgen receptor protein expressing cell line was established using the following protocol: T-Rex 293 cells were purchased from Invitrogen (Cat #R71007) and transfected using Lipofectamine 2000 with the wild-type androgen receptor protein sequence cloned into the pcDNA4/TO vector. Transfected cells were selected using 400 μg/mL Zeocin (Invitrogen Cat #R25001). Following selection, single clones were raised and maintained in Dulbecco's Modified Eagle Medium (DMEM) supplemented with 10% w/w Tetracycline-free fetal bovine serum (FBS) and 250 μg/mL Zeocin. Clones were analyzed for expression of androgen receptor protein in the presence and absence of 10 ng/mL doxycycline (Sigma Cat #D9891), and a single doxycycline-inducible clone (hereinafter “SC3”) was selected for use in downstream assays.
(§3) The SC3 cells were seeded on poly-D-lysine coated, black clear-bottom 384-well plates at 2500/well, in 25 μL Phenol Red Free Dulbecco's Modified Eagle Medium (DMEM) supplemented with 10% w/w charcoal-dextran treated fetal bovine serum (FBS) and 1% w/w pen-strep, with or without 10 ng/mL doxycycline. Pen-Strep is a commercially available mixture of penicillin G and streptomycin, which is used in mammalian cell culture media to prevent bacterial contamination. Phenol Red Free Dulbecco's Modified Eagle Medium (DMEM) supplemented with 10% w/w charcoal-dextran treated fetal bovine serum (FBS) and 1% w/w pen-strep, with or without 10 ng/mL doxycycline is herein referred to as Treatment Medium. Following seeding of cells in the plates, the plates were spun at 300×g for 30 seconds, then equilibrated to room temperature for 30 minutes, and then deposited in a humidified tissue culture incubator maintained at 37° C. with 5% CO2.
(§4) At 24 hours after seeding of the cells, dilutions of test compound were prepared in DMSO and dissolved in Treatment Medium, to achieve a final DMSO concentration of 0.5% w/w, thereby providing the Test Compound Solution. A 25 μL aliquot of the Test Compound Solution was added to cells in the well plates. An equal volume of a solution containing DMSO and Treatment Medium was used as a negative control. Following treatment of cells with Test Compound Solution or said equal volume of a solution containing DMSO and Treatment Medium, the plates were spun at 300×g for 30 seconds, and then left in an incubator for 72 hours.
(§5) At the end of the treatment duration, cell viability was quantified with CellTiter-Glo 2.0 reagent (Promega Cat #G9243). For this purpose, plates were equilibrated to room temperature for 30 minutes, and then 25 μL of CellTiter-Glo 2.0 reagent was added to cells in the plate wells. Plates were then agitated on a shaker for two minutes at 500 rpm and subsequently incubated at room temperature for 10 minutes. Following incubation, the plates were spun at 3000×g for 30 seconds, then sealed with an optical adhesive cover, and luminescence readings were measured with an EnVision Plate Reader.
(§6) Data was normalized using zero luminescence for baseline. A four-parameter non-linear regression curve fit was applied to dose-response data in GraphPad Prism data analysis software to determine the half-maximal growth inhibitory concentration (GI50) for each test compound.

T47D cells = test: Cellular growth inhibition assay for T47D cells; details: Homo sapiens, 72 hours, CellTiter-Glo 2.0
Protocol: (§7) T47D cells were purchased from American Type Cell Culture (ATCC Cat #HTB-133) and then seeded on poly-D-lysine coated, black clear-bottom 384-well plates at 3000/well in 25 μL Dulbecco's Modified Eagle Medium (DMEM) supplemented with 10% w/w Fetal bovine serum (FBS), 0.2 units/mL recombinant human insulin (Gibco Cat #12585014), and 1% w/w Pen-Strep. Pen-Strep is a commercially available mixture of penicillin G and streptomycin, which is used in mammalian cell culture media to prevent bacterial contamination. Dulbecco's Modified Eagle Medium (DMEM) supplemented with 10% w/w fetal bovine serum (FBS), 0.2 units/mL recombinant human insulin, and 1% w/w Pen-Strep is herein referred to as Treatment Medium. Following seeding of cells in the plates, the plates were spun at 300×g for 30 seconds, then equilibrated to room temperature for 30 minutes, and then deposited in a humidified tissue culture incubator maintained at 37° C. with 5% CO2.
as §4
as §5, with “Reader (Perkin Elmer).” for “Reader.”
as §6

[2] = test system: T-Rex 293 cell line SC3 cells having increased expression of androgen receptor protein; test: Cellular growth inhibition, T-Rex 293 SC3 cells with doxycycline (increased androgen receptor expression); details: with 10 ng/mL doxycycline (increased androgen receptor), 72 hours, CellTiter-Glo 2.0
Protocol: as §1, §2, §3, §4, §5, §6

VCaP cells = test: Cellular growth inhibition assay for VCaP cells; details: Homo sapiens, 72 hours, CellTiter-Glo 2.0
Protocol: as §7, with “VCaP” for “T47D”, “#CRL2876)” for “#HTB-133)”, “5000/well” for “3000/well”, “(FBS)” for “(FBS), 0.2 units/mL recombinant human insulin (Gibco Cat #12585014),”, “(FBS)” for “(FBS), 0.2 units/mL recombinant human insulin,”
as §4
as §5, with “Reader. Data was normalized using zero luminescence for baseline.” for “Reader.”
A four-parameter non-linear regression curve fit was applied to dose-response data in GraphPad Prism data analysis software to determine the half-maximal growth inhibitory concentration (GI50) for each test compound.

Row | SMILES | GI50 [1] [µM] | GI50 (T47D cells) [µM] | GI50 [2] [µM] | GI50 (VCaP cells) [µM]
1 | CN(CCNS(=O)(=O)c1ccc(Nc2ncc(Br)c(Nc3cccc(F)c3C(N)=O)n2)cc1)c1ncc(C(=O)N[C@H]2C(C)(C)[C@H](Oc3ccc(C#N)c(Cl)c3)C2(C)C)cn1 [Compound I-18, 2-((2-((4-((5-bromo-4-((2-carbamoyl-3-fluorophenyl)amino)pyrimidin-2-yl)amino)phenyl)sulfonamido)ethyl)(methyl)amino)-N-((1r,3r)-3-(3-chloro-4-cyanophenoxy)-2,2,4,4-tetramethylcyclobutyl)pyrimidine-5-carboxamide] | 0.1 to 1 | < 0.5 | 0.1 to 1 | 
2 | CN(CCOCCOCCNS(=O)(=O)c1ccc(Nc2ncc(Br)c(Nc3cccc(F)c3C(N)=O)n2)cc1)c1ncc(C(=O)N[C@H]2C(C)(C)[C@H](Oc3ccc(C#N)c(Cl)c3)C2(C)C)cn1 [Compound I-19] | > 3.5 | < 0.5 | > 3.5 | 
3 | CCc1cnn2c(NCc3ccc(OCCN4CCN(CC5CCN(c6ncc(C(=O)N[C@H]7C(C)(C)[C@H](Oc8ccc(C#N)c(Cl)c8)C7(C)C)cn6)CC5)CC4)nc3)cc(N3CCCCC3)nc12 [Compound I-48] | > 3.5 | 1.5 to 3 | 0.1 to 1 | > 3.5
4 | CCc1cnn2c(NCc3ccc(OCCCN4CCN(CC5CCN(c6ncc(C(=O)N[C@H]7C(C)(C)[C@H](Oc8ccc(C#N)c(Cl)c8)C7(C)C)cn6)CC5)CC4)nc3)cc(-c3ccccc3)nc12 [Compound I-49] | > 3.5 | 1.5 to 3 | 0.1 to 1 | > 3.5
5 | CCc1cnn2c(NCc3ccc(OCCCN4CCN(CC5CCN(c6ncc(C(=O)N[C@H]7C(C)(C)[C@H](Oc8ccc(C#N)c(Cl)c8)C7(C)C)cn6)CC5)CC4)nc3)cc(N3CCCCC3)nc12 [Compound I-50, N-((1 r,3r)-3-(3-chloro-4-cyanophenoxy)-2,2,4,4-tetramethylcyclobutyl)-2-(4-((4-(3-((5-(((3-ethyl-5-(piperidin-1-yl)pyrazolo[1,5-a]pyrimidin-7-yl)amino)methyl)pyridin-2-yl)oxy)propyl)piperazin-1-yl)methyl)piperidin-1-yl)pyrimidine-5-carboxamide] | > 3.5 | > 3 | 0.1 to 1 | > 3.5
6 | CCc1cnn2c(NCc3ccc(OCCC4CCN(CC5CCN(c6ncc(C(=O)N[C@H]7C(C)(C)[C@H](Oc8ccc(C#N)c(Cl)c8)C7(C)C)cn6)CC5)CC4)nc3)cc(N3CCCC[C@H]3CCO)nc12 [Compound I-52] | 0.1 to 1 | < 0.5 | < 0.1 | < 0.1
7 | CCc1cnn2c(NCc3ccc(N4CC(N5CCC(N6CCN(c7ncc(C(=O)N[C@H]8C(C)(C)[C@H](Oc9ccc(C#N)c(Cl)c9)C8(C)C)cn7)CC6)CC5)C4)nc3)cc(N3CCCC[C@H]3CCO)nc12 [Compound I-64] | < 0.1 | < 0.5 | < 0.1 | < 0.1
8 | CCc1cnn2c(NCc3ccc(N4CC(N5CCN(C6CCN(c7ncc(C(=O)N[C@H]8C(C)(C)[C@H](Oc9ccc(C#N)c(Cl)c9)C8(C)C)cn7)CC6)CC5)C4)nc3)cc(N3CCCC[C@H]3CCO)nc12 [Compound I-65] | < 0.1 | < 0.5 | < 0.1 | < 0.1
9 | CCc1cnn2c(NCc3ccc(N4CC(N5CCC(C6CCN(c7ncc(C(=O)N[C@H]8C(C)(C)[C@H](Oc9ccc(C#N)c(Cl)c9)C8(C)C)cn7)CC6)CC5)C4)nc3)cc(N3CCCC[C@H]3CCO)nc12 [Compound I-66] | > 3.5 | 1.5 to 3 | < 0.1 | 0.1 to 1
10 | COc1cc(F)ccc1-c1ccnc2[nH]c(C3CCN(CCOCCOCCOC4CCN(c5ncc(C(=O)N[C@H]6C(C)(C)[C@H](Oc7ccc(C#N)c(Cl)c7)C6(C)C)cn5)CC4)CC3)cc12 [Compound I-67, N-[3-(3-chloro-4-cyano-phenoxy)-2,2,4,4-tetramethyl-cyclobutyl]-2-[4-[2-[2-[2-[4-[4-(4-fluoro-2-methoxy-phenyl)-1H-pyrrolo[2,3-b]pyridin-2-yl]-1-piperidyl]ethoxy]ethoxy]ethoxy]-1-piperidyl]pyrimidine-5-carboxamide] | 1 to 3.5 | 1.5 to 3 | 0.1 to 1 | > 3.5
11 | CC(C)n1cc(-c2ccnc3[nH]c(C4CCN(CCOCCOCCOC5CCN(c6ncc(C(=O)N[C@H]7C(C)(C)[C@H](Oc8ccc(C#N)c(Cl)c8)C7(C)C)cn6)CC5)CC4)cc23)ccc1=O [Compound I-77] | 0.1 to 1 | 0.5 to 1.5 | 0.1 to 1 | 0.1 to 1
12 | CCc1cnn2c(NCc3ccc(N4CCN(C5CCN(C6CN(c7ncc(C(=O)N[C@H]8C(C)(C)[C@H](Oc9ccc(C#N)c(Cl)c9)C8(C)C)cn7)C6)CC5)CC4)nc3)cc(N3CCCC[C@H]3CCO)nc12 [Compound I-79] | < 0.1 | < 0.5 | < 0.1 | < 0.1
13 | CCc1cnn2c(NCc3ccc(N4CCC(OCCC5CCN(c6ncc(C(=O)N[C@H]7C(C)(C)[C@H](Oc8ccc(C#N)c(Cl)c8)C7(C)C)cn6)CC5)C4)nc3)cc(N3CCCC[C@H]3CCO)nc12 (stereo partly drawn) [Compound I-80] | > 3.5 | 0.5 to 1.5 | < 0.1 | 0.1 to 1
14 | CCc1cnn2c(NCc3ccc(N(C)CCCN4CCN(C5CN(c6ncc(C(=O)N[C@H]7C(C)(C)[C@H](Oc8ccc(C#N)c(Cl)c8)C7(C)C)cn6)C5)CC4)nc3)cc(N3CCCC[C@H]3CCO)nc12 [Compound I-81] |  | < 0.5 |  | 
